{"source": "ChEMBL document CHEMBL2073767", "about": "“Novel membrane transporter OCTN1 mediates multispecific, bidirectional, and pH-dependent transport of organic cations” (J Pharmacol Exp Ther, 1999)", "key": {"[1]": {"target": "T1, Solute carrier family 22 member 4 (Homo sapiens, UniProt Q9H015)", "T1 sequence (Q9H015 whole entry)": "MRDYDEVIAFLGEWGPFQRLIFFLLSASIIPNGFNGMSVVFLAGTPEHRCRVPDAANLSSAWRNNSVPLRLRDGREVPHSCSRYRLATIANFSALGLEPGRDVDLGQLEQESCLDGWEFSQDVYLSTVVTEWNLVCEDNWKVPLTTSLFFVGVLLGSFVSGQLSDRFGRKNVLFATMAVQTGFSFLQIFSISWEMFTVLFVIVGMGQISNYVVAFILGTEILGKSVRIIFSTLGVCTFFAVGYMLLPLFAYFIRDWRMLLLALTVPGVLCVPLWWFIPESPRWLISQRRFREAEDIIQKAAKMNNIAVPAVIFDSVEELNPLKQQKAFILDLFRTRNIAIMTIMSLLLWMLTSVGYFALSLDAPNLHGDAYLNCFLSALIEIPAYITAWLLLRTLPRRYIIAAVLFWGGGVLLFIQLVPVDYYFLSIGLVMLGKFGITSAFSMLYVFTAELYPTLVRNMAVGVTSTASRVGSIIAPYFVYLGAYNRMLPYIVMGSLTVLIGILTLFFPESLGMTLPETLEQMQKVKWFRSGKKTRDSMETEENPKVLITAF", "experiment": "TP_TRANSPORTER: inhibition of TEA uptake (TEA: 60 uM, Verapamil: 1000 uM) in Xenopus laevis oocytes", "type": "functional, cell-based, Oocyte", "parameters": "scale not given: the % may be the effect or the level left", "conditions": "probe TEA, read-out: Activity"}, "[2]": {"target": "T1, Solute carrier family 22 member 4", "experiment": "TP_TRANSPORTER: uptake in Xenopus laevis oocytes", "type": "functional, cell-based", "conditions": "oocyte"}, "[3]": {"target": "T1, Solute carrier family 22 member 4", "experiment": "TP_TRANSPORTER: inhibition of TEA uptake (TEA: 60 uM, PAH: 5000 uM) in Xenopus laevis oocytes", "type": "functional, cell-based", "conditions": "oocyte"}, "[4]": {"target": "T1, Solute carrier family 22 member 4", "experiment": "TP_TRANSPORTER: inhibition of TEA uptake (TEA: 60 uM, Arginine: 5000 uM) in OCTN1-expressing HEK293 cells", "type": "functional, cell-based", "conditions": "hek293, 5000 µM"}, "[5]": {"target": "T1, Solute carrier family 22 member 4", "experiment": "TP_TRANSPORTER: inhibition of TEA uptake (TEA: 60 uM, L-Carnitine: 1000 uM) in Xenopus laevis oocytes", "type": "functional, cell-based, Oocyte", "parameters": "scale not given: the % may be the effect or the level left", "conditions": "probe TEA, read-out: Activity"}, "[6]": {"target": "T1, Solute carrier family 22 member 4", "experiment": "TP_TRANSPORTER: inhibition of TEA uptake (TEA: 60 uM, CER: 1000 uM) in Xenopus laevis oocytes", "type": "functional, cell-based, Oocyte", "parameters": "scale not given: the % may be the effect or the level left", "conditions": "probe TEA, read-out: Activity"}, "[7]": {"target": "T1, Solute carrier family 22 member 4", "experiment": "in vitro", "conditions": "xenopus laevis, Xenopus laevis oocytes, probe TEA", "description": "TP_TRANSPORTER: inhibition of TEA uptake (TEA: 60 uM, Choline: 5000 uM) in Xenopus laevis oocytes"}, "[8]": {"target": "T1, Solute carrier family 22 member 4", "experiment": "in vitro", "conditions": "xenopus laevis, Xenopus laevis oocytes, probe TEA", "remark": "listed apart in the source"}, "[9]": {"target": "T1, Solute carrier family 22 member 4", "experiment": "TP_TRANSPORTER: inhibition of TEA uptake (TEA: 60 uM, D-Carnitine: 1000 uM) in Xenopus laevis oocytes", "type": "functional, cell-based, Oocyte", "parameters": "scale not given: the % may be the effect or the level left", "conditions": "probe TEA, read-out: Activity"}, "[10]": {"target": "T1, Solute carrier family 22 member 4", "experiment": "TP_TRANSPORTER: inhibition of TEA uptake (TEA: 60 uM, Guanidine: 5000 uM) in Xenopus laevis oocytes", "type": "functional, cell-based, Oocyte", "parameters": "scale not given: the % may be the effect or the level left", "conditions": "probe TEA, read-out: Activity"}, "[11]": {"target": "T1, Solute carrier family 22 member 4", "experiment": "TP_TRANSPORTER: inhibition of TEA uptake (TEA: 60 uM, Levofloxacin: 1000 uM) in Xenopus laevis oocytes", "type": "functional, cell-based", "parameters": "scale not given: the % may be the effect or the level left", "conditions": "oocyte"}, "[12]": {"target": "T1, Solute carrier family 22 member 4", "experiment": "TP_TRANSPORTER: inhibition of TEA uptake (TEA: 60 uM, Lysine: 5000 uM) in Xenopus laevis oocytes", "type": "functional, cell-based", "conditions": "oocyte"}, "[13]": {"target": "T1, Solute carrier family 22 member 4", "experiment": "in vitro", "conditions": "xenopus laevis, Xenopus laevis oocytes, probe TEA", "remark": "listed apart in the source", "description": "TP_TRANSPORTER: inhibition of TEA uptake (TEA: 60 uM, Nicotine: 1000 uM) in Xenopus laevis oocytes"}, "[14]": {"target": "T1, Solute carrier family 22 member 4", "experiment": "TP_TRANSPORTER: inhibition of TEA uptake (TEA: 60 uM, NMN: 5000 uM) in Xenopus laevis oocytes", "type": "functional, cell-based", "conditions": "oocyte"}, "[15]": {"target": "T1, Solute carrier family 22 member 4", "experiment": "TP_TRANSPORTER: inhibition of TEA uptake (TEA: 60 uM, OFLX: 1000 uM) in Xenopus laevis oocytes", "type": "functional, cell-based, Oocyte", "parameters": "scale not given: the % may be the effect or the level left", "conditions": "probe TEA, read-out: Activity"}, "[16]": {"target": "T1, Solute carrier family 22 member 4", "experiment": "TP_TRANSPORTER: inhibition of TEA uptake (TEA: 60 uM, PCG: 5000 uM) in Xenopus laevis oocytes", "type": "functional, cell-based", "conditions": "oocyte"}, "[17]": {"target": "T1, Solute carrier family 22 member 4", "experiment": "TP_TRANSPORTER: inhibition of TEA uptake (TEA: 60 uM, Procainamide: 1000 uM) in Xenopus laevis oocytes", "type": "functional, cell-based, Oocyte", "parameters": "scale not given: the % may be the effect or the level left", "conditions": "probe TEA, read-out: Activity"}, "[18]": {"target": "T1, Solute carrier family 22 member 4", "experiment": "TP_TRANSPORTER: inhibition of TEA uptake (TEA: 60 uM, Pyrilamine: 1000 uM) in Xenopus laevis oocytes", "type": "functional, cell-based, Oocyte", "parameters": "scale not given: the % may be the effect or the level left", "conditions": "probe TEA, read-out: Activity"}, "[19]": {"target": "T1, Solute carrier family 22 member 4", "experiment": "TP_TRANSPORTER: inhibition of TEA uptake (TEA: 60 uM, Quinidine: 1000 uM) in Xenopus laevis oocytes", "type": "functional, cell-based, Oocyte", "parameters": "scale not given: the % may be the effect or the level left", "conditions": "probe TEA, read-out: Activity"}, "[20]": {"target": "T1, Solute carrier family 22 member 4", "experiment": "TP_TRANSPORTER: inhibition of TEA uptake (TEA: 60 uM, Quinine: 1000 uM) in Xenopus laevis oocytes", "type": "functional, cell-based", "parameters": "scale not given: the % may be the effect or the level left", "conditions": "oocyte"}, "[21]": {"target": "T1, Solute carrier family 22 member 4", "experiment": "TP_TRANSPORTER: inhibition of TEA uptake (TEA: 60 uM, Spermidine: 5000 uM) in Xenopus laevis oocytes", "type": "functional, cell-based", "conditions": "oocyte"}, "[22]": {"substrate": "CC[N+](CC)(CC)CC", "experiment": "cells, lysate or membranes named"}}}
{"molecule": "COc1ccc(CCN(C)CCCC(C#N)(c2ccc(OC)c(OC)c2)C(C)C)cc1OC", "note": "(stereo unspecified)", "values": [{"measurement": "activity at 1000 µM", "setting": "[1]", "result": 8.8, "unit": "%"}, {"measurement": "Activity", "setting": "[2]", "result": "substrate [+]"}]}
{"molecule": "Nc1ccc(C(=O)NCC(=O)O)cc1", "note": "[AMINOHIPPURIC ACID]", "values": [{"measurement": "Activity", "setting": "[3]", "result": "is not an inhibitor [-]"}]}
{"molecule": "N=C(N)NCCC[C@H](N)C(=O)O", "note": "[ARGININE]", "values": [{"measurement": "Activity", "setting": "[4]", "result": "is not an inhibitor [-]"}]}
{"molecule": "C[N+](C)(C)CC(O)CC(=O)[O-]", "note": "(stereo unspecified) [CARNITINE]", "values": [{"measurement": "activity at 1000 µM", "setting": "[5]", "result": 32.5, "unit": "%"}, {"measurement": "Activity", "setting": "[2]", "result": "substrate [+]"}]}
{"molecule": "O=C(Cc1cccs1)N[C@@H]1C(=O)N2C(C(=O)[O-])=C(C[n+]3ccccc3)CS[C@H]12", "note": "[CEPHALORIDINE]", "values": [{"measurement": "activity at 1000 µM", "setting": "[6]", "result": 35.7, "unit": "%"}]}
{"molecule": "C[N+](C)(C)CCO", "note": "[CHOLINE]", "values": [{"measurement": "activity at 5000 µM", "setting": "[7]", "result": 73.2, "unit": "%"}]}
{"molecule": "Clc1cccc(Cl)c1N=C1NCCN1", "note": "[CLONIDINE]", "values": [{"measurement": "activity at 1000 µM", "setting": "[8]", "result": 70.9, "unit": "%"}]}
{"molecule": "C[N+](C)(C)C[C@@H](O)CC(=O)[O-]", "note": "[D-CARNITINE]", "values": [{"measurement": "activity at 1000 µM", "setting": "[9]", "result": 53.9, "unit": "%"}]}
{"molecule": "N=C(N)N", "note": "[GUANIDINE]", "values": [{"measurement": "activity at 5000 µM", "setting": "[10]", "result": 89.6, "unit": "%"}]}
{"molecule": "C[C@H]1COc2c(N3CCN(C)CC3)c(F)cc3c(=O)c(C(=O)O)cn1c23.C[C@H]1COc2c(N3CCN(C)CC3)c(F)cc3c(=O)c(C(=O)O)cn1c23.O", "note": "[LEVOFLOXACIN]", "values": [{"measurement": "Activity", "setting": "[11]", "result": 63.6, "unit": "%"}]}
{"molecule": "NCCCC[C@H](N)C(=O)O", "note": "[LYSINE]", "values": [{"measurement": "Activity", "setting": "[12]", "result": "is not an inhibitor [-]"}]}
{"molecule": "CN1CCC[C@H]1c1cccnc1", "note": "[NICOTINE]", "values": [{"measurement": "activity at 1000 µM", "setting": "[13]", "result": 71.6, "unit": "%"}]}
{"molecule": "CNC(=O)c1cccnc1", "note": "[NICOTINYL METHYLAMIDE]", "values": [{"measurement": "Activity", "setting": "[14]", "result": "is not an inhibitor [-]"}]}
{"molecule": "CC1COc2c(N3CCN(C)CC3)c(F)cc3c(=O)c(C(=O)O)cn1c23", "note": "(stereo unspecified) [OFLOXACIN]", "values": [{"measurement": "activity at 1000 µM", "setting": "[15]", "result": 61.4, "unit": "%"}]}
{"molecule": "CC1(C)S[C@@H]2[C@H](NC(=O)Cc3ccccc3)C(=O)N2[C@H]1C(=O)O", "note": "[PENICILLIN G]", "values": [{"measurement": "Activity", "setting": "[2]", "result": "is not a substrate [-]"}, {"measurement": "Activity", "setting": "[16]", "result": "is not an inhibitor [-]"}]}
{"molecule": "CCN(CC)CCNC(=O)c1ccc(N)cc1", "note": "[PROCAINAMIDE]", "values": [{"measurement": "activity at 1000 µM", "setting": "[17]", "result": 15.6, "unit": "%"}]}
{"molecule": "COc1ccc(CN(CCN(C)C)c2ccccn2)cc1", "note": "[PYRILAMINE]", "values": [{"measurement": "Activity", "setting": "[2]", "result": "substrate [+]"}, {"measurement": "activity at 1000 µM", "setting": "[18]", "result": 0, "unit": "%"}]}
{"molecule": "C=C[C@H]1C[N@@]2CC[C@H]1C[C@@H]2[C@@H](O)c1ccnc2ccc(OC)cc12", "note": "[QUINIDINE]", "values": [{"measurement": "activity at 1000 µM", "setting": "[19]", "result": 15.2, "unit": "%"}, {"measurement": "Activity", "setting": "[2]", "result": "substrate [+]"}]}
{"molecule": "C=C[C@H]1C[N@@]2CC[C@H]1C[C@H]2[C@H](O)c1ccnc2ccc(OC)cc12", "note": "[QUININE]", "values": [{"measurement": "Activity", "setting": "[20]", "result": 24.6, "unit": "%"}]}
{"molecule": "NCCCCNCCCN", "note": "[SPERMIDINE]", "values": [{"measurement": "Activity", "setting": "[21]", "result": "is not an inhibitor [-]"}]}
{"molecule": "Solute carrier family 22 member 4 (Homo sapiens) (protein) MRDYDEVIAFLGEWGPFQRLIFFLLSASIIPNGFNGMSVVFLAGTPEHRCRVPDAANLSSAWRNNSVPLRLRDGREVPHSCSRYRLATIANFSALGLEPGRDVDLGQLEQESCLDGWEFSQDVYLSTVVTEWNLVCEDNWKVPLTTSLFFVGVLLGSFVSGQLSDRFGRKNVLFATMAVQTGFSFLQIFSISWEMFTVLFVIVGMGQISNYVVAFILGTEILGKSVRIIFSTLGVCTFFAVGYMLLPLFAYFIRDWRMLLLALTVPGVLCVPLWWFIPESPRWLISQRRFREAEDIIQKAAKMNNIAVPAVIFDSVEELNPLKQQKAFILDLFRTRNIAIMTIMSLLLWMLTSVGYFALSLDAPNLHGDAYLNCFLSALIEIPAYITAWLLLRTLPRRYIIAAVLFWGGGVLLFIQLVPVDYYFLSIGLVMLGKFGITSAFSMLYVFTAELYPTLVRNMAVGVTSTASRVGSIIAPYFVYLGAYNRMLPYIVMGSLTVLIGILTLFFPESLGMTLPETLEQMQKVKWFRSGKKTRDSMETEENPKVLITAF", "values": [{"measurement": "Km", "setting": "[22]", "result": 436, "unit": "µM"}]}
